PubChem BioAssay (NCI)
Values joined by “and” are separate entries in the source; they are usually repeats but may differ in a detail not shown here. Equal values may be shown once.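 The compound was tested at five concentrations on cells cultured in 96-well plates, with a 48-hour exposure period. GI50 = concentration required for 50% inhibition of growth. Definition used: TGI = concentration required for complete inhibition of growth.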

Key:
Experiment in all cases: growth of human tumour cells (NCI), 48 h
U251 CNS = system: U251 CNS
IGROV1 ovarian = system: IGROV1 ovarian
CAKI-1 renal = system: CAKI-1 renal
HCC-2998 colon = system: HCC-2998 colon
RXF 393 renal = system: RXF 393 renal
786-0 renal = system: 786-0 renal
OVCAR-4 ovarian = system: OVCAR-4 ovarian
RPMI-8226 leukemia = system: RPMI-8226 leukemia
M19-MEL melanoma = system: M19-MEL melanoma

SMILES	GI50 (U251 CNS)	TGI (U251 CNS)	GI50 (IGROV1 ovarian)	TGI (IGROV1 ovarian)	GI50 (CAKI-1 renal)	TGI (CAKI-1 renal)	GI50 (HCC-2998 colon)	TGI (HCC-2998 colon)	GI50 (RXF 393 renal)	TGI (RXF 393 renal)	GI50 (786-0 renal)	TGI (786-0 renal)	GI50 (OVCAR-4 ovarian)	TGI (OVCAR-4 ovarian)	GI50 (RPMI-8226 leukemia)	TGI (RPMI-8226 leukemia)	GI50 (M19-MEL melanoma) [µM]	TGI (M19-MEL melanoma) [µM]
CC(C)[C@@H]1NC(=O)[C@]2(C)CSC(=N2)c2csc(n2)CNC(=O)C[C@@H](/C=C/CCS)OC1=O	0.0843 µM	1.02 µM	0.119 µM	2.77 µM	1.83 µM	7.83 µM	0.089 µM	0.442 µM	0.0521 µM	0.33 µM	0.454 µM	> 100 µM	0.416 µM	> 100 µM	0.563 µM	6.62 µM		
COc1ccc(C2=C(Br)C(=O)OC2)cc1Cl	28.5 µM	> 91.1 µM	45.9 µM	> 100 µM	8.52 µM	51.1 µM	14.9 µM	38.2 µM	26.8 µM	> 72.4 µM	34 µM	> 100 µM	61.4 µM	> 100 µM	17.3 µM	48.5 µM		
O=C1OCC2=C1C(c1cccc([N+](=O)[O-])c1)c1cc3c(cc1N2CCO)CCC3 (stereo not drawn)	0.218 µM	> 50 µM	0.255 µM	> 50 µM	0.083 µM	> 38 µM	0.188 µM	9.58 µM	0.123 µM	> 50 µM	0.0822 µM	16.8 µM	2.03 µM	> 50 µM	0.25 µM	> 39 µM		
[Ce+3].[Cl-].[O-]/N=C(\c1ccccc1)c1ccccn1.[O-]/N=C(\c1ccccc1)c1ccccn1.[O-]/N=C(\c1ccccc1)c1ccccn1	> 100 µM	> 100 µM	39.6 µM	> 100 µM	32.4 µM	> 100 µM	35.3 µM	> 100 µM	34.4 µM	96.3 µM	47 µM	> 100 µM	55 µM	> 100 µM	59.7 µM	> 100 µM	35.8	> 100
O=C(/C=C/c1ccccc1Cl)c1ccc(O)cc1	3.41 µM	12.7 µM	2.25 µM	5.25 µM	6.87 µM	20.2 µM	12.7 µM	26.7 µM	1.97 µM	5.59 µM	15.8 µM	30 µM	10.6 µM	24.9 µM	0.495 µM	3.39 µM		
CN(C)c1cc2c(cc1Sc1nc3c(N)nccc3n1CCNCC(C)(C)C)OCO2	0.726 µM	14.8 µM	0.56 µM	21.6 µM	0.591 µM	39.7 µM	0.805 µM	6.03 µM	0.665 µM	15.3 µM	3.89 µM	21.4 µM	6.17 µM	46.2 µM	0.658 µM	19.4 µM		
Clc1ccc(-c2nc(-c3c[nH]c4ncccc34)cs2)cc1	> 100 µM	> 100 µM	4.78 µM	> 100 µM	> 100 µM	> 100 µM	> 100 µM	> 100 µM	> 100 µM	> 100 µM	> 100 µM	> 100 µM	65.8 µM	> 100 µM	> 100 µM	> 100 µM		
Cc1oncc1C(=O)Nc1ccc(C(F)(F)F)cc1	14.7 µM	> 100 µM	26.7 µM	> 100 µM	33.3 µM	> 100 µM	64.5 µM	> 100 µM	23.9 µM	> 100 µM	54.5 µM	> 100 µM	25 µM	> 100 µM	17.5 µM	> 100 µM		
O=C(O[C@H]1CN[C@H](C#Cc2cc3ncnc(Nc4ccc(Cc5ccccc5)cc4)c3s2)C1)N1CCOCC1	5.52 µM	20.3 µM	2.45 µM	> 20.1 µM	2.08 µM	> 24.1 µM	4.2 µM	9.1 µM	1.35 µM	7.11 µM	7.3 µM	> 25 µM	6.22 µM	> 25 µM	6.47 µM	24.9 µM		
NC(=O)Cc1ccccc1Oc1nccc(-c2c(-c3ccc(F)cc3)ncn2C2CCNCC2)n1	> 25 µM	> 25 µM	> 25 µM	> 25 µM	> 25 µM	> 25 µM	> 25 µM	> 25 µM	> 25 µM	> 25 µM	> 25 µM	> 25 µM	> 25 µM	> 25 µM	> 25 µM	> 25 µM		
S=c1cn[nH]c2ccc(Br)cc12		> 100 µM		> 100 µM		> 100 µM		> 100 µM		70.7 µM		> 100 µM		> 100 µM		> 100 µM		
Cc1nc(NC(=O)COc2cccc(/C=C3\COc4ccccc4C3=O)c2)sc1C	1.54 µM	2.9 µM	0.43 µM	0.902 µM	1.5 µM	3.41 µM	1.94 µM	3.49 µM	1.78 µM	3.48 µM	1.73 µM	3.22 µM	4.02 µM	13.9 µM	14.8 µM	> 100 µM		
CC(/C=C/C=C/C=C/C=C/C=C/C(O)=C1/C(=O)C(CCC(=O)O)N(C)C1=O)=C\C(C)C(OC1CC(O)C(O)C(C)O1)C(C)C (stereo not drawn)		11.7 µM		4.48 µM		12.6 µM		7.53 µM		11.2 µM		11.1 µM		40.1 µM		9.25 µM		
Cn1c(=O)c(Sc2ccccc2F)cc2cnc(NC3CCOCC3)nc21	> 25 µM	> 25 µM	> 25 µM	> 25 µM	> 25 µM	> 25 µM	> 25 µM	> 25 µM	> 25 µM	> 25 µM	> 25 µM	> 25 µM	> 25 µM	> 25 µM	> 25 µM	> 25 µM		
Cc1ccc(NC(=O)C2C(=O)C(=O)N(c3ccc(C)cc3)C2=O)cc1 (stereo not drawn)		> 100 µM		> 100 µM				> 100 µM		> 100 µM		> 100 µM		> 100 µM				> 100
O=S(=O)(c1ccc2c(c1)C(=NO)c1cc(S(=O)(=O)N3CCCCC3)ccc1-2)N1CCCCC1	> 1 µM and 0.178 µM	> 1 µM and 0.344 µM	0.131 µM and 0.0732 µM	0.494 µM and 0.213 µM	0.427 µM and 0.147 µM	> 1 µM and 0.282 µM	0.298 µM and 0.134 µM	> 1 µM and 0.273 µM	> 1 µM and 0.204 µM	> 1 µM and 0.358 µM	0.212 µM and 0.186 µM	0.499 µM and 0.342 µM	0.195 µM and 0.0636 µM	0.426 µM and 0.143 µM	0.189 µM and 0.126 µM	0.424 µM and 0.452 µM		
